Test results: US10392368B2, “Pyrazolo and triazolo bicyclic compounds as JAK kinase inhibitors” (THERAVANCE BIOPHARMA R&D IP, LLC, priority 2017, dated 2019)
Like-named read-outs stand apart in the source and are kept apart here.

Columns and labels:
JAK1 = target: T1, JAK1 (Homo sapiens, UniProt P23458); assay: Biochemical JAK1 kinase assay (LanthaScreen); settings: for Ki: read-out: JAK 1 (pKi) (converted)
T1 construct: GST; purchased Life Technologies
In short: (§1)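 TR-FRET readout (520/495 nm) using Tb-labelled pTyr701 antibody after EDTA stop, following 1 h ATP-started phosphorylation of GFP-STAT1 by recombinant GST-JAK. Compounds preincubated 1 h with enzyme and substrate; pIC50 from 4-parameter fit, Cheng-Prusoff gives pKi.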

JAK3 = target: T2, JAK3 (Homo sapiens, UniProt P52333); assay: Biochemical JAK3 kinase assay (LanthaScreen); set-up: GST; purchased Life Technologies; settings: for Ki: read-out: JAK 3 (pKi) (converted)
T2 sequence (P52333 1-1124): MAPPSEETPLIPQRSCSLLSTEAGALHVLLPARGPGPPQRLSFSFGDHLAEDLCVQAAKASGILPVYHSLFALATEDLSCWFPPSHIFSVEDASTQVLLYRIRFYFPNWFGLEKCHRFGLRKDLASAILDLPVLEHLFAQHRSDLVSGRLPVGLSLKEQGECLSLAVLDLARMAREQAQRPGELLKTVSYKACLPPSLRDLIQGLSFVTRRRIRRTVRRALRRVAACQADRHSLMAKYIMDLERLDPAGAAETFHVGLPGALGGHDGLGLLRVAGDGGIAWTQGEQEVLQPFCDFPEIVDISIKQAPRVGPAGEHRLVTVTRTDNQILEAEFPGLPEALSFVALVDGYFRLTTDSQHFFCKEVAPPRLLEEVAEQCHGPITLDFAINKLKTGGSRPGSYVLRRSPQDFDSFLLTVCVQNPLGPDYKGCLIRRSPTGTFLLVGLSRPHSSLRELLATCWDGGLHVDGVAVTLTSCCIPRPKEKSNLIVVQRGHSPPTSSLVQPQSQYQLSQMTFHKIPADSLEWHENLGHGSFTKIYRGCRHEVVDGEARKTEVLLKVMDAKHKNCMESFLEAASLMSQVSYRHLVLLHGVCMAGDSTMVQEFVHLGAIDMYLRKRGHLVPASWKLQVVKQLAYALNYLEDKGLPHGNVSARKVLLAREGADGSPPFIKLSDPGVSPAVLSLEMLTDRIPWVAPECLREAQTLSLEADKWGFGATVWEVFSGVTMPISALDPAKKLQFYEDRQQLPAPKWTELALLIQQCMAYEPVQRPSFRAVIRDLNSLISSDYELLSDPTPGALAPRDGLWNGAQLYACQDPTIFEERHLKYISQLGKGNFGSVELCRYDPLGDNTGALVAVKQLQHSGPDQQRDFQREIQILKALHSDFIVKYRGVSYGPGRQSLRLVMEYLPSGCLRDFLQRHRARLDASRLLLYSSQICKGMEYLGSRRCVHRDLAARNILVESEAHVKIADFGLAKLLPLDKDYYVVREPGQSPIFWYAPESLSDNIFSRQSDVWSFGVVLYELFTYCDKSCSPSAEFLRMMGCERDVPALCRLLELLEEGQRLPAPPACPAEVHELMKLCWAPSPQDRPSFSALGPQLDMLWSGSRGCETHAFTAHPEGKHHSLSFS
In short: as §1

[1] = system: IL-2 stimulated pSTAT5 in Tall-1 T cells; assay: Cellular JAK3 potency assay: inhibition of IL-2 stimulated pSTAT5 in Tall-1 T cells; format: cell-based, human; settings: for IC50: Homo sapiens, read-out: Tall-1 (pIC50) (converted)
In short: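 Tall-1 human T cells were preincubated with compound for 1 h at 37° C, then stimulated with IL-2 (300 ng/ml final) for 30 min. STAT5 phosphorylation in lysates was read by AlphaLisa bead emission, and IC50 from inhibition curves is given as pIC50 (mean±SD).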

JAK2 = target: T3, JAK2 (Homo sapiens, UniProt O60674); assay: Biochemical JAK2 kinase assay (LanthaScreen); settings: for Ki: read-out: JAK 2 (pKi) (converted)
T3 construct: GST; purchased Life Technologies
In short: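 pKi values derive from pIC50 via Cheng-Prusoff, with IC50 from a 4-parameter fit of percent-inhibition TR-FRET data using Tb-anti-pSTAT1 (pTyr701) detection. Compound, GST-JAK2 and GFP-STAT1 substrate were pre-incubated 1 h, then ATP started a 1 h ambient reaction (HEPES pH 7.5, 10 mM MgCl2, 1% DMSO).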

Tyk2 = target: T4, Tyk2 (Homo sapiens, UniProt P29597); assay: Biochemical Tyk2 kinase assay (LanthaScreen); settings: for Ki: read-out: Tyk 2 (pKi) (converted)
T4 construct: GST; purchased Life Technologies
In short: as §1

[2] = selectivity JAK3 over JAK1, difference of pKi
[3] = IL-2 stimulated pSTAT5, Tall-1 T cells
[4] = selectivity: difference of pKi JAK3 and pKi JAK1
[5] = TALL-1, IL-2 stimulated pSTAT5 in Tall-1 T cells
[6] = IL-2 stimulated pSTAT5 in Tall-1 T cells
[7] = TALL-1, IL-2 stimulated pSTAT5, Tall-1 T cells

T3 sequence (O60674 whole entry): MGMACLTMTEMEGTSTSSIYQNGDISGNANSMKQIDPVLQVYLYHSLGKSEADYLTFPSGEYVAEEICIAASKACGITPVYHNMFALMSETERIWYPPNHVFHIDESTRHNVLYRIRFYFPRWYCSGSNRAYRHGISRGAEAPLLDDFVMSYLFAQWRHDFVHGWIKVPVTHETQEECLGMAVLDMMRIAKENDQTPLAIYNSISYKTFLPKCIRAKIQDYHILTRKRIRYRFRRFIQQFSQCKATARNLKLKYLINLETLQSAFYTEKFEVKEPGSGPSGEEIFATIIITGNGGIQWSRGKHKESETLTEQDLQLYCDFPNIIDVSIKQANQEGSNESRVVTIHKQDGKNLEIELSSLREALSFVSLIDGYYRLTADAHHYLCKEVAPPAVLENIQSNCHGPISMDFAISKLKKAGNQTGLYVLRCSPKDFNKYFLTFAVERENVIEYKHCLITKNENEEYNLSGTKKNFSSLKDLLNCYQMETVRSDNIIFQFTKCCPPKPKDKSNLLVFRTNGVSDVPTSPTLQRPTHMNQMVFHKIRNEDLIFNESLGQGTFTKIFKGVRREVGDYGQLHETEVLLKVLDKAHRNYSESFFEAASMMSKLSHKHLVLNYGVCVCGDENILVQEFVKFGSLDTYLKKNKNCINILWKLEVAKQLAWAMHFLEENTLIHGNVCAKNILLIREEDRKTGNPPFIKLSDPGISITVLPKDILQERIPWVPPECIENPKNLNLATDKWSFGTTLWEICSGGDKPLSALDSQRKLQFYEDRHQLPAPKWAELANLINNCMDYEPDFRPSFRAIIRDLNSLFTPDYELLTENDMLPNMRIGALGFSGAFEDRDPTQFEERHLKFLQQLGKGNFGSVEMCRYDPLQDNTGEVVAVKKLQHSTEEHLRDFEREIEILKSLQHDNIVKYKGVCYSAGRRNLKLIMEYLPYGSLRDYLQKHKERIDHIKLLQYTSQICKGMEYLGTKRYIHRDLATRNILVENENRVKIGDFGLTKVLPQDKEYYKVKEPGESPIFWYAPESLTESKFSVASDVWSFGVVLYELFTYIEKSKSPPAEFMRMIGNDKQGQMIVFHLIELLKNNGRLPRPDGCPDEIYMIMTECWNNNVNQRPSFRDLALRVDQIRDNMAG
T1 sequence (P23458 whole entry): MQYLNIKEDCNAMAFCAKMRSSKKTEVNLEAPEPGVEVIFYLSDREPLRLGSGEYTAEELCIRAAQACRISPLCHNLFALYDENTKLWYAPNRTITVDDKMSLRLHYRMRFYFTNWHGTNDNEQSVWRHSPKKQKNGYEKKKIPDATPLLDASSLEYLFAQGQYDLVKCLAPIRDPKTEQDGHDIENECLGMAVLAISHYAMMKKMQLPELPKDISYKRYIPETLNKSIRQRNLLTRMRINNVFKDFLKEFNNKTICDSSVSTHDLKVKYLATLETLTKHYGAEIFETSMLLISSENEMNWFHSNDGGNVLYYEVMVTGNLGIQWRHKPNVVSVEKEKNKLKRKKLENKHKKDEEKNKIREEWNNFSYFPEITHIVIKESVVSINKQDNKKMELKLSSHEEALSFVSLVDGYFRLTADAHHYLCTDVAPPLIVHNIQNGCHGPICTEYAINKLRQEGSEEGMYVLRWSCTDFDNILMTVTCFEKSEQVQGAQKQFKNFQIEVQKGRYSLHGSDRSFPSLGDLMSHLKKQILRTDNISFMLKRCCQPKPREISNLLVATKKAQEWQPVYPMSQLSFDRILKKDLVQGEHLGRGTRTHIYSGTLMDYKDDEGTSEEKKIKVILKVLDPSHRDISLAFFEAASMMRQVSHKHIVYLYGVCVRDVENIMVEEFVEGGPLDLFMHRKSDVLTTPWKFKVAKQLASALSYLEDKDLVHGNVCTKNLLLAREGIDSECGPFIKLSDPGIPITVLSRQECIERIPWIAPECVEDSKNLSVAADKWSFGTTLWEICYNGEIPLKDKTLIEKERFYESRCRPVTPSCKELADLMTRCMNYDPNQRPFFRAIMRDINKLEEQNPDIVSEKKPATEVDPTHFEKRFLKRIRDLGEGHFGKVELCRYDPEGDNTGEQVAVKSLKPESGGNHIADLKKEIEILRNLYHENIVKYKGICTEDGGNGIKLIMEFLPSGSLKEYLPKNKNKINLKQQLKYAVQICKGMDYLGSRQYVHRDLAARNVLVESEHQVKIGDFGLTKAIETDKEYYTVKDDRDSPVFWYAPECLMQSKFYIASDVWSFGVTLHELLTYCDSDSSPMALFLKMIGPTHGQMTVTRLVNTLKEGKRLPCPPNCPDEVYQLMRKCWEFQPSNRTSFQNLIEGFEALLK
T4 sequence (P29597 whole entry): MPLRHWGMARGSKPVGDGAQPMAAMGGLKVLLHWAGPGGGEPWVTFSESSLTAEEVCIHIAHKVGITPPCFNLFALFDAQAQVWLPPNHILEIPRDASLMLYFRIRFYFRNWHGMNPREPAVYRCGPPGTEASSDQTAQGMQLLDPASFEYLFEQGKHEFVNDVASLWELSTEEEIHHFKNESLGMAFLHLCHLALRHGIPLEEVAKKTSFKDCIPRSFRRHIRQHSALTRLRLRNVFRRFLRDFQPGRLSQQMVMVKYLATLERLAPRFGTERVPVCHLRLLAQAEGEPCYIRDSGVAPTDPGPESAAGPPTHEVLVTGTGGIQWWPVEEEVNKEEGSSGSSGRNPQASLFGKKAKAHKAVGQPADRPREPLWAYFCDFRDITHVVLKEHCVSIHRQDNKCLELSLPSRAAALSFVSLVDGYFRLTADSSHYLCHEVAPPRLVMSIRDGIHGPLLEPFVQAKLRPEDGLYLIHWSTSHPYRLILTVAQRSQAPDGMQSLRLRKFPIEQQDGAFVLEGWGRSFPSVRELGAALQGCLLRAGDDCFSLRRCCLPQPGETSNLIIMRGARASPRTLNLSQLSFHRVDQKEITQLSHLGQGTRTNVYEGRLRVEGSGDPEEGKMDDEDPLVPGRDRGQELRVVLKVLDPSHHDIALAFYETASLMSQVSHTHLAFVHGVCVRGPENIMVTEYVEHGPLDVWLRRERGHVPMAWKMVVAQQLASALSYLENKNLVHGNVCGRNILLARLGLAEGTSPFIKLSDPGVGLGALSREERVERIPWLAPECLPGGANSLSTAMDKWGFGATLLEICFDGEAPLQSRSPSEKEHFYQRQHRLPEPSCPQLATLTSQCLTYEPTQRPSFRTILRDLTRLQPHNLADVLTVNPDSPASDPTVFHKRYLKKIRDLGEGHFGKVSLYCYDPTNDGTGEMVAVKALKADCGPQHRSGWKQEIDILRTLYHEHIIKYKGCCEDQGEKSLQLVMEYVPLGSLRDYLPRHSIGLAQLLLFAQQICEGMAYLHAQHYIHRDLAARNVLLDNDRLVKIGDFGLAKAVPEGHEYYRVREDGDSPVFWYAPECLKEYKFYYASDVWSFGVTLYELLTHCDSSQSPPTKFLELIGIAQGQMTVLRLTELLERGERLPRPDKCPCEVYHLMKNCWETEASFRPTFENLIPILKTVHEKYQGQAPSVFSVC

SMILES | JAK 1 (pKi) (JAK1) | JAK 3 (pKi) (JAK3) | JAK3 (pKi)-JAK1 (pKi) (JAK3; [2]) | Tall-1 (pIC50) [1, 3] | JAK 2 (pKi) (JAK2) | Tyk 2 (pKi) (Tyk2) | Ki (JAK1) [nM] | Ki (JAK3) [nM] | JAK3 (pKi)-JAK1 (pKi) (JAK3; [4]) | IC50 [1, 5] [nM] | Ki (JAK2) [nM] | Ki (Tyk2) [nM] | Tall-1 (pIC50) [1, 6] | IC50 [1, 7] [nM]
C=CC(=O)N1CCCC(Oc2cc(-c3ccc(O)c(F)c3)cc3[nH]ncc23)C1 (stereo not drawn) [Compound 8-5] | E (a pKi value of 7 or below (Ki of 100 nM or above)) | A (a pKi value≥10 (Ki≤0.1 nM)) | A (a value of 3 or above) | A (a pIC50 value≥7.5 (IC50≤32 nM)) | D (a pKi value between 7 and 8 (Ki between 100 nM and 10 nM)) | E (a pKi value of 7 or below (Ki of 100 nM or above)) | – | – | – | – | – | – | – | –
COC1CN(C/C=C/C(=O)N2CC(COc3cc(-c4ccc(O)cc4)cc4[nH]ncc34)C2)C1 [Compound 3-132] | – | – | – | – | – | – | > 100 | 0.1 to 1 | A (a value of 3 or above) | 200 to 1000 | > 100 | > 100 | – | –
C=CC(=O)N1CC[C@H](Oc2nc(-c3ccc(O)cc3)cc3[nH]ncc23)C1 [Compound 1-8] | – | – | – | – | – | – | > 100 | 0.1 to 1 | A (a value of 3 or above) | 31.6 to 200 | > 100 | > 100 | – | –
C=CC(=O)N1CC(COc2cc(-c3ccc(O)c(Cl)c3)cc3[nH]ncc23)C1 [Compound 3-3] | – | – | – | – | – | – | > 100 | 0.1 to 1 | A (a value of 3 or above) | < 31.6 | > 100 | > 100 | – | –
C=CC(=O)N1CC(Oc2cc(-c3ccc(O)c(F)c3)cc3[nH]ncc23)(C(F)F)C1 [Compound 5-22] | E (a pKi value of 7 or below (Ki of 100 nM or above)) | B (a pKi value between 9 and 10 (Ki between 1 nM and 0.1 nM)) | A (a value of 3 or above) | B (a pIC50 value between 6.7 (included) and 7.5 (IC50 between 200 nM and 32 nM)) | E (a pKi value of 7 or below (Ki of 100 nM or above)) | E (a pKi value of 7 or below (Ki of 100 nM or above)) | – | – | – | – | – | – | – | –
C=CC(=O)N1CC(CC)(COc2nc(-c3ccc(O)cc3)nc3[nH]ncc23)C1 [Compound 3-63] | E (a pKi value of 7 or below (Ki of 100 nM or above)) | A (a pKi value≥10 (Ki≤0.1 nM)) | – | – | E (a pKi value of 7 or below (Ki of 100 nM or above)) | E (a pKi value of 7 or below (Ki of 100 nM or above)) | – | – | A (a value of 3 or above) | – | – | – | B (a pIC50 value between 6.7 (included) and 7.5 (IC50 between 200 nM and 32 nM)) | –
C=CC(=O)N1CC[C@@H](Oc2cc(-c3ccc(O)cc3)cc3[nH]ncc23)C[C@H]1C [Compound 12-29] | – | – | A (a value of 3 or above) | – | – | – | > 100 | 0.1 to 1 | – | – | 10 to 100 | > 100 | – | < 31.6
CN(C)C/C=C/C(=O)N1CC(COc2cc(-c3ccc(O)cc3)cc3[nH]nc(C(F)(F)F)c23)C1 [Compound 18-12] | – | – | B (a value of 2.3 to 3) | – | – | – | 10 to 100 | 0.1 to 1 | – | – | 10 to 100 | > 100 | – | 31.6 to 200
C=CC(=O)N1CC(CN(C)c2cc(-c3ccc(O)cc3)cc3[nH]ncc23)C1 [Compound 4-1] | E (a pKi value of 7 or below (Ki of 100 nM or above)) | B (a pKi value between 9 and 10 (Ki between 1 nM and 0.1 nM)) | – | – | E (a pKi value of 7 or below (Ki of 100 nM or above)) | E (a pKi value of 7 or below (Ki of 100 nM or above)) | – | – | A (a value of 3 or above) | – | – | – | B (a pIC50 value between 6.7 (included) and 7.5 (IC50 between 200 nM and 32 nM)) | –
C=C(CN(C)C)C(=O)N1CC(COc2cc(-c3ccc(O)cc3)nc3[nH]ncc23)C1 [Compound 3-79] | – | – | – | – | – | – | > 100 | 0.1 to 1 | A (a value of 3 or above) | 31.6 to 200 | > 100 | > 100 | – | –
CN(C)C/C=C/C(=O)N1CCC(COc2cc(-c3ccc(O)cc3)cc3[nH]ncc23)CC1 [Compound 12-26] | – | – | B (a value of 2.3 to 3) | – | – | – | > 100 | 0.1 to 1 | – | – | 10 to 100 | > 100 | – | 200 to 1000
C=CC(=O)N1CC(C)(COc2cc(-c3ccc(O)cc3)cc3[nH]ncc23)C1 [Compound 3-8] | E (a pKi value of 7 or below (Ki of 100 nM or above)) | B (a pKi value between 9 and 10 (Ki between 1 nM and 0.1 nM)) | – | – | E (a pKi value of 7 or below (Ki of 100 nM or above)) | E (a pKi value of 7 or below (Ki of 100 nM or above)) | – | – | A (a value of 3 or above) | – | – | – | A (a pIC50 value≥7.5 (IC50≤32 nM)) | –
C=CC(=O)N1CC(C)(COc2nc(-c3ccc(O)cc3)cc3[nH]ncc23)C1 [Compound 3-56] | – | – | – | – | – | – | > 100 | < 0.1 | A (a value of 3 or above) | < 31.6 | 10 to 100 | > 100 | – | –
C=CC(=O)N1CC[C@H](Sc2cc(-c3ccc(O)cc3)cc3[nH]ncc23)C1 [Compound 12, (S)-1-(3-((6-(4-hydroxyphenyl)-1H-indazol-4-yl)thio)pyrrolidin-1-yl)prop-2-en-1-one] | – | – | – | – | – | – | > 100 | 0.1 to 1 | B (a value of 2.3 to 3) | 31.6 to 200 | > 100 | > 100 | – | –
C=CC(=O)N1CC(C#N)(COc2nc(-c3ccc(O)c(F)c3)nc3[nH]ncc23)C1 [Compound 3-110] | – | – | – | – | – | – | > 100 | 0.1 to 1 | A (a value of 3 or above) | 31.6 to 200 | > 100 | > 100 | – | –
COC(CN(C)C/C=C/C(=O)N1CC(COc2cc(-c3ccc(O)cc3)cc3[nH]ncc23)C1)OC [Compound 3-121] | – | – | – | – | – | – | > 100 | 0.1 to 1 | A (a value of 3 or above) | 31.6 to 200 | 10 to 100 | > 100 | – | –
C=CC(=O)N1CC[C@H](Oc2cc(-c3ccc(O)cc3)cc3[nH]nc(C)c23)C1 [Compound 1-20] | – | – | – | – | – | – | > 100 | 0.1 to 1 | B (a value of 2.3 to 3) | < 31.6 | 10 to 100 | > 100 | – | –
CN(C)C/C=C/C(=O)N1CC(OCc2nc(-c3ccc(O)cc3)cc3[nH]ncc23)C1 [Compound 16-6] | E (a pKi value of 7 or below (Ki of 100 nM or above)) | B (a pKi value between 9 and 10 (Ki between 1 nM and 0.1 nM)) | A (a value of 3 or above) | C (a pIC50 value between 6 and 6.7 (IC50 between 1 μM and 200 nM)) | E (a pKi value of 7 or below (Ki of 100 nM or above)) | E (a pKi value of 7 or below (Ki of 100 nM or above)) | – | – | – | – | – | – | – | –
